# Legend:
# Assay type in all cases: cell-based
# [1] = tested on: NCI-H226; assay: Mesothelioma cell line proliferation assay (ATPlite), NCI-H226; details: Homo sapiens, 144 h; NCI-H226 cells, 6 days, ATPlite cell viability
# Outline: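 Mesothelioma cells seeded at 1500 cells/well in RPMI 1640 with 10% FBS, incubated overnight, then treated with compound dose-response in DMSO for 6 days at 37° C, 5% CO2. Viability read by ATPlite luminescence; percent inhibition used to derive EC50.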
# [2] = tested on: YAP/TAZ-TEAD transcription; assay: Reporter gene assay for measuring the inhibition of YAP/TAZ-TEAD transcription (TEAD-responsive element luciferase reporter in Hek293T cells); details: Homo sapiens, HEK-293T, 24 hours incubation
# Outline: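 Percent inhibition, scaled between vehicle (0%) and a positive control inhibitor (100%), came from SteadyLite luciferase signal after 24 h compound exposure at 37 °C/5% CO2. Cells: Hek293T transiently carrying a TEAD-responsive luciferase reporter; EC50 derived.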
# [3] = tested on: NCI-H2052; assay: Mesothelioma cell line proliferation assay (ATPlite), NCI-H2052; details: Homo sapiens, NCI-H2052, 144 h, NCI-H2052 cells, 6 days, ATPlite cell viability
# Protocol: Mesothelioma cell lines, NCI-H226 and NCI-H2052 (all sourced from the ATCC cell culture collection) are plated in 96-well plates (Corning® 96 Well White Polystyrene Microplate clear flat bottom, white polystyrene (TC-Treated)), at 1500 cells/well in full medium (RPMI 1640 ATCC modification with L-glutamine, HEPES, Phenol Red, Sodium Pyruvate, High glucose, Low sodium bicarbonate and 10% fetal bovine serum). Cells are incubated overnight at 37° C. in an incubator with 5% CO2. Then compounds, dissolved in DMSO, are added in dose-response. Cells are incubated with compound dilutions for another 6 days at 37° C. in an incubator with 5% CO2. Cell viability is quantitated using the ATPlite kit (Perkin-Elmer) and the luminescence is read-out using an Envision instrument (Perkin-Elmer). The amount of relative light units produced using the ATPlite kit is used to calculated percent of inhibition.
# The activities of example compounds tested are depicted in the table below. The activity ranges A, B and C refer to EC50 values in the mesothelioma cell line proliferation assay as described as follows: “A”: EC50<1 μM; “B”: 1 μM s EC50≤10 μM and “C”: EC50>10 μM. NT: not tested.
EC50 [1],EC50 [2],EC50 [3],SMILES
< 1000 nM,< 1000 nM,< 1000 nM,"C=CC(=O)NCc1ncc(-c2ccc(F)cc2)cc1-c1ccn(C(F)F)n1 [compound 203, N-((3-(1-(difluoromethyl)-1H-pyrazol-3-yl)-5-(4-fluorophenyl)pyridin-2-yl)methyl)acrylamide]"
< 1000 nM,< 1000 nM,< 1000 nM,"C=CC(=O)NCc1cnc(-c2ccc(F)cc2)cc1-c1ccn(C)n1 [compound 205, N-((6-(4-fluorophenyl)-4-(1-methyl-1H-pyrazol-3-yl)pyridin-3-yl)methyl)acrylamide]"
< 1000 nM,< 1000 nM,< 1000 nM,"C=CC(=O)NCc1cnc(-c2ccc(F)cc2)cc1-c1ccn(C2CC2)n1 [compound 206, N-((4-(1-cyclopropyl-1H-pyrazol-3-yl)-6-(4-fluorophenyl)pyridin-3-yl)methyl)acrylamide]"
< 1000 nM,< 1000 nM,< 1000 nM,"C=CC(=O)NCc1cnc(-c2ccc(F)cc2)cc1-c1ccn(C(F)F)n1 [compound 207, N-((4-(1-(difluoromethyl)-1H-pyrazol-3-yl)-6-(4-fluorophenyl)pyridin-3-yl)methyl)acrylamide]"
< 1000 nM,< 1000 nM,1000 to 10000 nM,"C=CC(=O)NCc1cnc(-c2cccc(F)c2)cc1-c1ccn(C(F)F)n1 [compound 211, N-((4-(1-(difluoromethyl)-1H-pyrazol-3-yl)-6-(3-fluorophenyl)pyridin-3-yl)methyl)acrylamide]"
< 1000 nM,< 1000 nM,1000 to 10000 nM,"C=CC(=O)NCc1cnc(-c2cccc(Cl)c2)cc1-c1ccn(C(F)F)n1 [compound 213, N-((6-(3-chlorophenyl)-4-(1-(difluoromethyl)-1H-pyrazol-3-yl)pyridin-3-yl)methyl)acrylamide]"
< 1000 nM,< 1000 nM,1000 to 10000 nM,"C=CC(=O)NCc1cnc(-c2cccc(C(F)(F)F)c2)cc1-c1ccn(C(F)F)n1 [compound 215, N-((4-(1-(difluoromethyl)-1H-pyrazol-3-yl)-6-(3-(trifluoromethyl)phenyl)pyridin-3-yl)methyl)acrylamide]"
< 1000 nM,< 1000 nM,1000 to 10000 nM,"C=CC(=O)NCc1cnc(N2CCC(F)(F)CC2)cc1-c1ccn(C(F)F)n1 [compound 221, N-((4-(1-(difluoromethyl)-1H-pyrazol-3-yl)-6-(4,4-difluoropiperidin-1-yl)pyridin-3-yl)methyl)acrylamide]"
< 1000 nM,< 1000 nM,> 10000 nM,"C=CC(=O)NCc1cc(-c2ccc(F)cc2)cc(-c2cnn(C(F)F)c2)n1 [compound 227, N-((6-(1-(difluoromethyl)-1H-pyrazol-4-yl)-4-(4-fluorophenyl)pyridin-2-yl)methyl)acrylamide]"
< 1000 nM,< 1000 nM,< 1000 nM,"C=CC(=O)NCc1cnc(-c2ccc(F)cc2)cc1-n1ccc(C)n1 [compound 240, N-((6-(4-fluorophenyl)-4-(3-methyl-1H-pyrazol-1-yl)pyridin-3-yl)methyl)acrylamide]"
< 1000 nM,< 1000 nM,1000 to 10000 nM,"C=CC(=O)NCc1ccc(-c2ccc(F)cc2)cc1-n1ccc(C)n1 [compound 241, N-((4′-fluoro-3-(3-methyl-1H-pyrazol-1-yl)-[1,1′-biphenyl]-4-yl)methyl)acrylamide]"
< 1000 nM,< 1000 nM,1000 to 10000 nM,"C=CC(=O)NCc1cnc(-c2ccc(F)cc2)cc1-n1cc(C)cn1 [compound 243, N-((6-(4-fluorophenyl)-4-(4-methyl-1H-pyrazol-1-yl)pyridin-3-yl)methyl)acrylamide]"
< 1000 nM,< 1000 nM,< 1000 nM,"C=CC(=O)NCc1cnc(-c2ccc(F)cc2)cc1-n1ncc(C)n1 [compound 244, N-((6-(4-fluorophenyl)-4-(4-methyl-2H-1,2,3-triazol-2-yl)pyridin-3-yl)methyl)acrylamide]"
< 1000 nM,< 1000 nM,< 1000 nM,"C=CC(=O)NCc1cnc(-c2ccc(F)cc2)nc1-c1ccn(C(F)F)n1 [compound 254, N-((4-(1-(difluoromethyl)-1H-pyrazol-3-yl)-2-(4-fluorophenyl)pyrimidin-5-yl)methyl)acrylamide]"

# Continued, molecule first:
SMILES,EC50 [1],EC50 [2],EC50 [3]
"C=CC(=O)NCc1ccc(-c2ccc(F)cc2)cc1-c1cc(C)n(C)n1 [compound 176, N-((3-(1,5-dimethyl-1H-pyrazol-3-yl)-4′-fluoro-[1,1′-biphenyl]-4-yl)methyl)acrylamide]",< 1000 nM,< 1000 nM,< 1000 nM
"C=C(F)C(=O)NCc1ccc(-c2ccc(C(F)(F)F)cc2)cc1-c1ccn(C)n1 [compound 177, 2-fluoro-N-((3-(1-methyl-1H-pyrazol-3-yl)-4′-(trifluoromethyl)-[1,1′-biphenyl]-4-yl)methyl)acrylamide]",< 1000 nM,< 1000 nM,< 1000 nM
"C=CC(=O)NCc1ccc([C@H]2CC[C@@H](C(F)(F)F)CC2)cc1-c1ccn(C)n1 [compound 179, cis-N-(2-(1-methyl-1H-pyrazol-3-yl)-4-(4-(trifluoromethyl)cyclohexyl)benzyl)acrylamide]",< 1000 nM,< 1000 nM,< 1000 nM
"C=CC(=O)NCc1ccc(C2CCC(F)(F)CC2)cc1-c1ccn(C)n1 [compound 180, N-(4-(4,4-difluorocyclohexyl)-2-(1-methyl-1H-pyrazol-3-yl)benzyl)acrylamide]",< 1000 nM,< 1000 nM,< 1000 nM
"C=CC(=O)NCc1ccc(N2CCC(F)(F)CC2)cc1-c1ccn(C)n1 [compound 182, N-(4-(4,4-difluoropiperidin-1-yl)-2-(1-methyl-1H-pyrazol-3-yl)benzyl)acrylamide]",< 1000 nM,< 1000 nM,< 1000 nM
"C=CC(=O)NCc1ccc(-c2ccc(F)cc2)cc1-c1cn(C)nn1 [compound 184, N-((4′-fluoro-3-(1-methyl-1H-1,2,3-triazol-4-yl)-[1,1′-biphenyl]-4-yl)methyl)acrylamide]",< 1000 nM,< 1000 nM,< 1000 nM
"C=CC(=O)NCc1ccc(-c2ccc(F)cc2)cc1-c1cn(C(F)F)nn1 [compound 185, N-((3-(1-(difluoromethyl)-1H-1,2,3-triazol-4-yl)-4′-fluoro-[1,1′-biphenyl]-4-yl)methyl)acrylamide]",< 1000 nM,< 1000 nM,1000 to 10000 nM
"C=CC(=O)NCc1ccc(-c2ccc(F)cc2)cc1-c1cnn(C)n1 [compound 187, N-((4′-fluoro-3-(2-methyl-2H-1,2,3-triazol-4-yl)-[1,1′-biphenyl]-4-yl)methyl)acrylamide]",< 1000 nM,< 1000 nM,1000 to 10000 nM
"C=CC(=O)NCc1ccc(-c2ccc(F)cc2)cc1-c1nnn(C)n1 [compound 188, N-((4′-fluoro-3-(2-methyl-2H-tetrazol-5-yl)-[1,1′-biphenyl]-4-yl)methyl)acrylamide]",< 1000 nM,< 1000 nM,< 1000 nM
"C=CC(=O)NCc1ccc(-c2ccc(F)cc2)cc1-c1nnn(C(F)F)n1 [compound 190, N-((3-(2-(difluoromethyl)-2H-tetrazol-5-yl)-4′-fluoro-[1,1′-biphenyl]-4-yl)methyl)acrylamide]",< 1000 nM,< 1000 nM,1000 to 10000 nM
"C=CC(=O)NCc1ccc(-c2ccc(F)cc2)nc1-c1ccn(C)n1 [compound 193, N-((6-(4-fluorophenyl)-2-(1-methyl-1H-pyrazol-3-yl)pyridin-3-yl)methyl)acrylamide]",< 1000 nM,< 1000 nM,< 1000 nM
"C=CC(=O)NCc1ccc(-c2ccccc2)nc1-c1ccn(C)n1 [compound 194, N-((2-(1-methyl-1H-pyrazol-3-yl)-6-phenylpyridin-3-yl)methyl)acrylamide]",< 1000 nM,< 1000 nM,< 1000 nM
"C=CC(=O)NCc1ccc(-c2ccc(F)cc2)nc1-c1ccn(C(F)F)n1 [compound 198, N-((2-(1-(difluoromethyl)-1H-pyrazol-3-yl)-6-(4-fluorophenyl)pyridin-3-yl)methyl)acrylamide]",< 1000 nM,< 1000 nM,< 1000 nM
"C=CC(=O)NCc1ncc(-c2ccc(F)cc2)cc1-c1ccn(C)n1 [compound 201, N-((5-(4-fluorophenyl)-3-(1-methyl-1H-pyrazol-3-yl)pyridin-2-yl)methyl)acrylamide]",< 1000 nM,< 1000 nM,< 1000 nM
"C=CC(=O)NCc1ncc(-c2ccc(F)cc2)cc1-c1ccn(C2CC2)n1 [compound 202, N-((3-(1-cyclopropyl-1H-pyrazol-3-yl)-5-(4-fluorophenyl)pyridin-2-yl)methyl)acrylamide]",< 1000 nM,< 1000 nM,< 1000 nM
